Marks after values point to notes of the source that are not given here.
How the values were obtained:
Cathepsin B [1] = target: T1, Cathepsin B (Homo sapiens, UniProt P07858); assay: Degradation on incubation with Cathepsin B: Mw loss and drug release profile from PGA-conjugate; assay type: in vitro ADME; details: Cathepsin B (5 U), pH 6 buffer, 37°C; for 50% drug release t: determined by HPLC; for 50% Mw Loss t: determined by Size Exclusion Chromatography (SEC)
Method: Aqueous solutions of I.1 (1 mg/mL) were prepared, and an aliquot (100 µL) was added to a polypropylene tube and made up to 1 mL with water. The pH of the samples was adjusted to 8 with ammonium formate buffer (100 µL, 1 M, pH 8.5), and then CHCl3 (5 mL) was added. Samples were then thoroughly extracted by vortexing (3 x 10 sec). The […] layer was carefully removed and the solvent was evaporated under N2. The dry residue was dissolved in 200 µL of HPLC grade acetonitrile. In parallel the same procedure was carried out for the parent compound II.1 (using 200µL of a 1 mg/mL stock aqueous solution). Addition of 1 mL of acetonitrile to redissolve the product gave a 200 µg/mL stock from which a range of concentrations was prepared (2 to 100 µg/mL). The free amount of drug in the conjugates was determined by HPLC using a Lichrospher® C18 (150 x 3.9 mm) column. Flow rate 1 mL/min using an acetonitrile gradient in aqueous 0.1 % TFA (from 10 to 90% of acetonitrile in 25 min). The retention time was tr = 22.5 min for II.1 (λ = 220 nm) and tr = 22.0 for II.2.
Cathepsin B (5 U) was added last to a solution of 3 mg PGA or PGA-conjugate I in 1 mL of a pH 6 buffer composed by 20 mM sodium acetate, 2 mM EDTA and 5 mM DTT. Incubation was carried out at 37°C. Aliquots (150 µL) were taken at times up to 72 h, immediately frozen in liquid nitrogen, and stored frozen in the dark until assayed by HPLC (analysis of 100 µL aliquots after extraction procedure) and/or GPC (direct analysis of 50 µL aliquots). In control experiments polymers were incubated in buffer alone (without addition of cathepsin B) to assess non-enzymatic hydrolytic cleavage. In addition, free drug (0.75 mg/mL) was also incubated under same conditions and later used as the reference control. HPLC Evaluation of Released Drug (VIIIa, I.1 or I.2) The extraction method described above to determine free drug content of the conjugate samples was also used here. Mass analysis of the released compounds was carried out by MALDI TOF TOF. GPC Evaluation of Polymer Mw loss. The 50 µL aliquots were diluted up to 200 µL with buffer (PBS) and the Mw determined by GPC using PEG standards. Generally degradation profiles for biomedical polymers are obtained under constant sink conditions and the results correlated with mass loss of the polymer. Since PGA polymers are water soluble, the relative peak areas used in the GPC derived molecular weight calculations provided a suitable alternative to indicate the relative amount of the polymer that remained at each timepoint. As the polymer degraded there was a notable loss of I (PGA-conjugate) molecular weight. Therefore, the loss with time of the area under the curve (AUC) for I and PGA (XII) was considered to evaluate the rate of backbone degradation. […]

Caspase activity = assay: Caspase inhibition assay (time-dependent, Ac-DEVD-afc substrate) in cultured cells; assay type: cell-based; details: Saos-2, 50 µM drug-eq., apoptosis induced by doxycyclin 2 µM, vs non-treated cells
Method: The time-dependent inhibition of caspase induced by the compounds described in this invention was analyzed. Cell lines were grown in the presence or absence of compounds (50 µM) at different times. Caspase activity was assayed using Saos-2 or U937 cultured cell lines and Ac-DEVD-afc (N-acetyl-Asp-Glu-Val-Asp-afc(7-amino-4-trifluoromethyl coumarin)) as substrate (20 µM). For Saos-2 cell line, apoptosis induction was carried out by the addition of doxycyclin 2 µM; in the case of U937, apoptosis was induced by doxorubicin 0.25 µM. Caspase activity was continuously monitored by the liberation of fluorescent afc using a Cytofluor 4000 fluorimeter (excitation 400 nm; emission 508 nm) for 2 hour. The effect of the compounds on the caspase activity was expressed as the percentage of inhibition in the fluorescence signal of treated cells vs the non-treated cells (control). As control is shown the activity of the previously described conjugate with diglycil linker (named as diglycil)

Cathepsin B [2] = target: T1, Cathepsin B; details: reference value from Vicent MJ and Pérez-Payá, J. Med. Chem. 2006, 49, 3763-3765, cited from earlier work

Substance: Poly-L-glutamic acid [2-(2-Amino-3-phenylpropionylamino)-N-{[({carbamoylmethyl-[2-(2,4-dichlorophenyl)ethyl]carbamoyl}methyl)-(3,3-diphenylpropyl)carbamoyl]-methyl}-N-[2-(2,4-dichlorophenyl)ethyl]-3-methylbutyramide] conjugate [I.1]
- 50% drug release t (Cathepsin B [1]): 0.7 h
- 50% Mw Loss t (Cathepsin B [1]): 5 h
- % Caspase Inhibition (Caspase activity; Time 24 h): 23%
- % Caspase Inhibition (Caspase activity; Time 48 h): 65%
- % Caspase Inhibition (Caspase activity; Time 72 h): 100%

Substance: Poly-L-glutamic acid [2-Amino-4-methylpentanoic acid (1-{{[({carbamoylmethyl-[2-(2,4-dichlorophenyl)ethyl]carbamoyl}methyl)-(3,3-diphenylpropyl)carbamoyl]methyl}-[2-(2,4-dichlorophenyl)ethyl]carbamoyl}-2-methylpropyl)amide] conjugate [I.2]
- 50% drug release t (Cathepsin B [1]): 20 h
- 50% Mw Loss t (Cathepsin B [1]): 30 h
- % Caspase Inhibition (Caspase activity; Time 24 h): 65%
- % Caspase Inhibition (Caspase activity; Time 48 h): 100%
- % Caspase Inhibition (Caspase activity; Time 72 h): 100%

Substance: Poly-L-glutamic acid [2-Amino-pentanoic acid (1-{{[({carbamoyl[2-(2,4-chlorophenyl)ethyl]carbamoyl}methyl)-(3,3-diphenylpropyl)carbamoyl]methyl}-[2-(2,4-dichlorophenyl)ethyl]carbamoyl}-2-methylpropyl)amide] conjugate [diglycil, reference compound]
- % Caspase Inhibition (Caspase activity; Time 24 h): 67%
- % Caspase Inhibition (Caspase activity; Time 48 h): 72%
- % Caspase Inhibition (Caspase activity; Time 72 h): 100%
- 50% drug release t (h) (Cathepsin B [2]; determined by HPLC): 30^c h
- 50% Mw Loss t (h) (Cathepsin B [2]; determined by SEC): 60^c h

Reference: patent publication EP1994944A1, “Polymer conjugate compounds for the inhibition of apoptosis” (Laboratorios SALVAT, S.A., priority 2007, dated 2008)
